The structures appear in SMILES notation. Some results are limits rather than exact numbers.

Data set [1] is described as follows: Dissociation constant, pKa of the compound. Format: physicochemical.
The target in data set [2] is T1, Carbonic anhydrase 2 (Homo sapiens, UniProt P00918).
Description: Binding affinity to human carbonic anhydrase 2 in presence of 10 mM HEPES without Na+ at pH 7.5 by ThermoFluor method
Data set [3] has as its target T1, Carbonic anhydrase 2. This is another data set of the same source.
Description: Inhibition of human carbonic anhydrase 2 by 4-NPA hydrolysis assay
The target in data set [4] is T1, Carbonic anhydrase 2. The source holds these as a separate data set.
Description: Binding affinity to human carbonic anhydrase 2 in presence of 10 mM PIPES without Na+ at pH 7.0 by ThermoFluor method
Data set [5] concerns the target T1, Carbonic anhydrase 2. The source holds these as a separate data set.
Description: Binding affinity to human carbonic anhydrase 2 in presence of 10 mM HEPES and 100 uM Na2SO4 at pH 7.5 by ThermoFluor method
For data set [6], the target named is T1, Carbonic anhydrase 2. This is another data set of the same source.
Description: Binding affinity to human carbonic anhydrase 2 in presence of 10 mM PIPES and 200 uM NaCl at pH 7.0 by ThermoFluor method
Data set [7] concerns the target T1, Carbonic anhydrase 2. The source holds these as a separate data set.
Description: Binding affinity to human carbonic anhydrase 2 in presence of 10 mM PIPES and 100 uM Na2SO4 at pH 7.0 by ThermoFluor method

Consider `CC1(C)O[C@@H]2[C@@H](CO[C@@]3(COS(N)(=O)=O)OC(C)(C)O[C@@H]23)O1` [TOPIRAMATE], for which the pKa in data set [1] was found to be 8.7.

With `CC1(C)O[C@H]2[C@@H]3OCO[C@@H]3CO[C@@]2(CNS(N)(=O)=O)O1`, the Kd in data set [2], in data set [4], in data set [5], in data set [6] and in data set [7] was over 57 µM each time. Further, the affinity in data set [3], expressed as Ki, was 300 µM.

Take `CC1(C)O[C@@H]2[C@@H](CO[C@@]3(CNS(N)(=O)=O)OC(C)(C)O[C@@H]23)O1`: the pKa in data set [1] was found to be 10.7.

The pKa is the negative logarithm of the acid dissociation constant. A low value points to a group that gives up its proton readily. One may read the Kd as a measure of binding affinity in units of concentration. One may read the Ki as a measure of affinity in units of concentration, obtained from inhibition or displacement. Read a high Ki as lower affinity.

Source of the values: ChEMBL document CHEMBL1144768 (J Med Chem, 2008).
